Source: patent US10750743B2, “Pyridazinone herbicides” (E.I. DU PONT DE NEMOURS AND COMPANY, priority 2015, dated 2020)

Key:
Type in all cases: in vivo
[1] = tested on: ducksalad (Heteranthera limosa); assay: Test B flooded paddy test, visual rating; conditions: Flood, 250 g ai/ha, applied to paddy water, rated after 13 to 15 d
Summary of the method: (§1)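 Plants grown to the 2-leaf stage. At treatment, pots were flooded to 3 cm above the soil, compound was applied directly to the paddy water, and that depth was held throughout. After 13 to 15 d in the greenhouse, response was rated visually against controls on a 0 (no effect) to 100 (complete control) scale.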

[2] = tested on: barnyardgrass (Echinochloa crus-galli); assay: Test B flooded paddy test, visual rating; conditions: Flood, 250 g ai/ha, applied to paddy water, rated after 13 to 15 d
Summary of the method: as §1

[3] = tested on: rice (Oryza sativa); assay: Test B flooded paddy test, visual rating; conditions: Flood, 250 g ai/ha, applied to paddy water, rated after 13 to 15 d
Summary of the method: as §1

[4] = tested on: sedge, umbrella (small-flower umbrella sedge, Cyperus difformis); assay: Test B flooded paddy test, visual rating; conditions: Flood, 250 g ai/ha, applied to paddy water, rated after 13 to 15 d
Summary of the method: as §1

[5] = tested on: ragweed (common ragweed, Ambrosia elatior); assay: Test A preemergence, directed soil spray, visual injury rating; conditions: 0 is no effect, 100 is complete control
Summary of the method: (§2)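 Compounds in a surfactant-containing solvent were applied as a directed soil spray preemergence, or postemergence to plants 2-10 cm tall at the one- to two-leaf stage, in loam-sand blend. After about 10 d in the greenhouse, injury was rated visually against untreated controls on a 0-100 scale (100 = complete control).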

[6] = tested on: foxtail, giant (giant foxtail, Setaria faberii); assay: as above; conditions: 0 is no effect, 100 is complete control
Summary of the method: as §2

[7] = tested on: barnyardgrass (Echinochloa crus-galli); assay: as above; conditions: 0 is no effect, 100 is complete control
Summary of the method: as §2

[8] = tested on: ryegrass, It. (Italian ryegrass, Lolium multiflorum); assay: as above; conditions: 0 is no effect, 100 is complete control
Summary of the method: as §2

[9] = tested on: kochia (Kochia scoparia); assay: as above; conditions: 0 is no effect, 100 is complete control
Summary of the method: as §2

[10] = tested on: pigweed (Amaranthus retroflexus); assay: as above; conditions: 0 is no effect, 100 is complete control
Summary of the method: as §2

[11] = tested on: corn (Zea mays); assay: Test A postemergence application, visual injury rating; conditions: for Corn plant response rating: 0 to 100 scale, 0 no effect, 100 complete control
Summary of the method: as §2

[12] = tested on: ragweed (common ragweed, Ambrosia elatior); assay: as above; conditions: for Ragweed plant response rating: 0 to 100 scale, 0 no effect, 100 complete control
Summary of the method: as §2

[13] = tested on: foxtail, giant (giant foxtail, Setaria faberii); assay: as above; conditions: for Foxtail, Giant plant response rating: 0 to 100 scale, 0 no effect, 100 complete control
Summary of the method: as §2

[14] = tested on: barnyardgrass (Echinochloa crus-galli); assay: as above; conditions: 0 to 100 scale, 0 no effect, 100 complete control
Summary of the method: as §2

[15] = tested on: ryegrass, It. (Italian ryegrass, Lolium multiflorum); assay: as above; conditions: for Ryegrass, It. plant response rating: 0 to 100 scale, 0 no effect, 100 complete control
Summary of the method: as §2

[16] = tested on: kochia (Kochia scoparia); assay: as above; conditions: for Kochia plant response rating: 0 to 100 scale, 0 no effect, 100 complete control
Summary of the method: as §2

[17] = tested on: wheat (Triticum aestivum); assay: as above; conditions: for Wheat plant response rating: 0 to 100 scale, 0 no effect, 100 complete control
Summary of the method: as §2

[18] = tested on: pigweed (Amaranthus retroflexus); assay: as above; conditions: for Pigweed plant response rating: 0 to 100 scale, 0 no effect, 100 complete control
Summary of the method: as §2

[19] = tested on: blackgrass (Alopecurus myosuroides); assay: as above; conditions: 0 to 100 scale, 0 no effect, 100 complete control
Summary of the method: as §2

[20] = tested on: galium (catchweed bedstraw, Galium aparine); assay: as above; conditions: for Galium plant response rating: 0 to 100 scale, 0 no effect, 100 complete control
Summary of the method: as §2

[21] = 31 g ai/ha, 0 is no effect, 100 is complete control

| Structure (SMILES) | Ducksalad plant response rating (0 to 100 scale, 0 is no effect, 100 is complete control) [1] | Barnyardgrass plant response rating (0 to 100 scale, 0 is no effect, 100 is complete control) [2] | Rice plant response rating (0 to 100 scale, 0 is no effect, 100 is complete control) [3] | Sedge, Umbrella plant response rating (0 to 100 scale, 0 is no effect, 100 is complete control) [4] | Plant response rating (0 to 100 scale), Ragweed ([5]; 31 g ai/ha) | Plant response rating (0 to 100 scale), Ragweed ([5]; 125 g ai/ha) | Plant response rating (0 to 100 scale), Foxtail, Giant ([6]; 31 g ai/ha) | Plant response rating (0 to 100 scale), Foxtail, Giant ([6]; 125 g ai/ha) | Plant response rating (0 to 100 scale), Barnyardgrass ([7]; 31 g ai/ha) | Plant response rating (0 to 100 scale), Barnyardgrass ([7]; 125 g ai/ha) | Plant response rating (0 to 100 scale), Ryegrass, It. ([8]; 31 g ai/ha) | Plant response rating (0 to 100 scale), Ryegrass, It. ([8]; 125 g ai/ha) | Plant response rating (0 to 100 scale), Kochia ([9]; 31 g ai/ha) | Plant response rating (0 to 100 scale), Kochia ([9]; 125 g ai/ha) | Plant response rating (0 to 100 scale), Pigweed ([10]; 31 g ai/ha) | Plant response rating (0 to 100 scale), Pigweed ([10]; 125 g ai/ha) | Corn plant response rating ([11]; 125 g ai/ha) | Ragweed plant response rating ([12]; 125 g ai/ha) | Foxtail, Giant plant response rating ([13]; 125 g ai/ha) | Barnyardgrass plant response rating ([14]; 31 g ai/ha) | further results |
| --- | --- | --- | --- | --- | --- | --- | --- | --- | --- | --- | --- | --- | --- | --- | --- | --- | --- | --- | --- | --- | --- |
| Cc1cc2c(-c3c(O)c(C)nn(C)c3=O)ccc(Cl)c2o1 [Compound 45] | 30 | 0 | 0 | 50 | 0 | 10 | 0 | 0 | 0 | 0 | 0 | 30 | 0 | 0 | 0 | 50 | 0 | 0 | 0 | 0 | Corn plant response rating ([11]; 31 g ai/ha): 0; Ragweed plant response rating ([12]; 31 g ai/ha): 0; Foxtail, Giant plant response rating ([13]; 31 g ai/ha): 0; Barnyardgrass plant response rating ([14]; 125 g ai/ha): 0; Ryegrass, It. plant response rating ([15]; 31 g ai/ha): 20; Ryegrass, It. plant response rating ([15]; 125 g ai/ha): 60; Kochia plant response rating ([16]; 31 g ai/ha): 0; Kochia plant response rating ([16]; 125 g ai/ha): 0; Wheat plant response rating ([17]; 31 g ai/ha): 0; Wheat plant response rating ([17]; 125 g ai/ha): 0; Pigweed plant response rating ([18]; 31 g ai/ha): 0; Pigweed plant response rating ([18]; 125 g ai/ha): 10; Blackgrass plant response rating ([19]; 31 g ai/ha): 0; Blackgrass plant response rating ([19]; 125 g ai/ha): 0; Galium plant response rating ([20]; 31 g ai/ha): 20; Galium plant response rating ([20]; 125 g ai/ha): 70 |
| CC(=O)Oc1c(Cl)nn(C)c(=O)c1-c1nccc2ccccc12 [Compound 66] | 0 | 0 | 0 | 0 | 0 | 0 | 0 | 0 | 0 | 0 | 0 | 50 | 0 | 0 | 10 | 20 | 0 | 30 | 10 | 0 | Plant response rating (0 to 100 scale), Corn [11, 21]: 0; Plant response rating (0 to 100 scale), Ragweed [12, 21]: 10; Plant response rating (0 to 100 scale), Foxtail, Giant [13, 21]: 0; Barnyardgrass plant response rating ([14]; 125 g ai/ha): 10; Plant response rating (0 to 100 scale), Ryegrass, It. [15, 21]: 20; Ryegrass, It. plant response rating ([15]; 125 g ai/ha): 40; Plant response rating (0 to 100 scale), Kochia [16, 21]: 0; Kochia plant response rating ([16]; 125 g ai/ha): 40; Plant response rating (0 to 100 scale), Wheat [17, 21]: 0; Wheat plant response rating ([17]; 125 g ai/ha): 0; Plant response rating (0 to 100 scale), Pigweed [18, 21]: 40; Pigweed plant response rating ([18]; 125 g ai/ha): 50; Blackgrass plant response rating ([19]; 31 g ai/ha): 0; Blackgrass plant response rating ([19]; 125 g ai/ha): 0; Plant response rating (0 to 100 scale), Galium [20, 21]: 0; Galium plant response rating ([20]; 125 g ai/ha): 50 |
| Cc1ccc2sc(Cl)cc2c1-c1c(O)c(C)nn(C)c1=O [Compound 46] | 0 | 0 | 0 | 70 | 80 | 80 | 30 | 80 | 0 | 50 | 90 | 100 | 50 | 80 | 100 | 100 | 20 | 100 | 90 | 10 | Corn plant response rating ([11]; 31 g ai/ha): 0; Ragweed plant response rating ([12]; 31 g ai/ha): 90; Foxtail, Giant plant response rating ([13]; 31 g ai/ha): 50; Barnyardgrass plant response rating ([14]; 125 g ai/ha): 30; Ryegrass, It. plant response rating ([15]; 31 g ai/ha): 90; Ryegrass, It. plant response rating ([15]; 125 g ai/ha): 100; Kochia plant response rating ([16]; 31 g ai/ha): 60; Kochia plant response rating ([16]; 125 g ai/ha): 90; Wheat plant response rating ([17]; 31 g ai/ha): 0; Wheat plant response rating ([17]; 125 g ai/ha): 20; Pigweed plant response rating ([18]; 31 g ai/ha): 90; Pigweed plant response rating ([18]; 125 g ai/ha): 90; Blackgrass plant response rating ([19]; 31 g ai/ha): 40; Blackgrass plant response rating ([19]; 125 g ai/ha): 70; Galium plant response rating ([20]; 31 g ai/ha): 90; Galium plant response rating ([20]; 125 g ai/ha): 90 |
